Laboratory results as given in patent publication US9149038B2, “4-amino-6-(heterocyclic)picolinates and 6-amino-2-(heterocyclic)pyrimidine-4-carboxylates and their use as herbicides” (Dow AgroSciences LLC, priority 2013, dated 2015).
Like-named read-outs stand apart in the source and are kept apart here.

Experiments:
[1] = test system: Key Broadleaf Weed and Crop Species; test: Post-Emergent Test II: postemergent herbicidal activity, visual rating after 14 d (Table 7); format: in vivo; conditions: post-emergence, 336 h; for pest or weed control at 35 g/ha: 35 g ai/ha; for pest or weed control at 70 g/ha: 70 g ai/ha; for pest or weed control at 140 g/ha: 140 g ai/ha
Summary of the method: (§1)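 Visual scoring at 14 d, 0 (no injury) to 100 (complete kill), relative to untreated plants. Postemergent overhead track-sprayer application, 187 L/ha, at a top rate plus serial ½×–1/16× rates, to plants grown 7–21 d at about 23–29° C day under a 15 h photoperiod, then subirrigated.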

[2] = test system: Key Grass and Sedge Weeds as well as Grass Crops; test: Post-Emergent Test II: postemergent herbicidal activity, visual rating after 14 d (Table 8); format: in vivo; conditions: post-emergence, 336 h; for pest or weed control at 35 g/ha: 35 g ai/ha; for pest or weed control at 70 g/ha: 70 g ai/ha; for pest or weed control at 140 g/ha: 140 g ai/ha
Summary of the method: as §1

[3] = ABUTH: velvetleaf (Abutilon theophrasti), read-out: Visual Growth Reduction (%) 14 Days After Application ABUTH
[4] = AMARE: redroot pigweed (Amaranthus retroflexus), read-out: Visual Growth Reduction (%) 14 Days After Application AMARE
[5] = BRSNN: oilseed rape, canola (Brassica napus), read-out: Visual Growth Reduction (%) 14 Days After Application BRSNN
[6] = CHEAL: lambsquarters (Chenopodium album), read-out: Visual Growth Reduction (%) 14 Days After Application CHEAL
[7] = EPHHL: wild poinsettia (Euphorbia heterophylla), read-out: Visual Growth Reduction (%) 14 Days After Application EPHHL
[8] = HELAN: sunflower (Helianthus annuus), read-out: Visual Growth Reduction (%) 14 Days After Application HELAN
[9] = barnyardgrass (Echinochloa crus-galli), read-out: Visual Growth Reduction (%) 14 Days After Application, ECHCG
[10] = giant foxtail (Setaria faberi), read-out: Visual Growth Reduction (%) 14 Days After Application, SETFA
[11] = maize, corn (Zea mays), read-out: Visual Growth Reduction (%) 14 Days After Application, ZEAMX
[12] = rice (Oryza sativa), read-out: Visual Growth Reduction (%) 14 Days After Application, ORYSA
[13] = wheat, spring (Triticum aestivum), read-out: Visual Growth Reduction (%) 14 Days After Application, TRZAS
[14] = yellow nutsedge (Cyperus esculentus), read-out: Visual Growth Reduction (%) 14 Days After Application, CYPES

COC(=O)c1nc(-c2ccc(F)c3c2OC(F)(F)O3)cc(N)c1Cl [Compound 88]
pest or weed control at 35 g/ha [1, 3]: 60 to 74%
pest or weed control at 70 g/ha [1, 3]: 85 to 94%
pest or weed control at 140 g/ha [1, 3]: 85 to 94%
pest or weed control at 35 g/ha [1, 4]: 95 to 100%
pest or weed control at 70 g/ha [1, 4]: 95 to 100%
pest or weed control at 140 g/ha [1, 4]: 95 to 100%
pest or weed control at 35 g/ha [1, 5]: 60 to 74%
pest or weed control at 70 g/ha [1, 5]: 60 to 74%
pest or weed control at 140 g/ha [1, 5]: 75 to 84%
pest or weed control at 35 g/ha [1, 6]: 85 to 94%
pest or weed control at 70 g/ha [1, 6]: 85 to 94%
pest or weed control at 140 g/ha [1, 6]: 95 to 100%
pest or weed control at 35 g/ha [1, 7]: 0 to 29%
pest or weed control at 70 g/ha [1, 7]: 0 to 29%
pest or weed control at 140 g/ha [1, 7]: 0 to 29%
pest or weed control at 35 g/ha [1, 8]: 30 to 44%
pest or weed control at 70 g/ha [1, 8]: 60 to 74%
pest or weed control at 140 g/ha [1, 8]: 60 to 74%
pest or weed control at 35 g/ha [2, 9]: 0 to 29%
pest or weed control at 70 g/ha [2, 9]: 0 to 29%
pest or weed control at 140 g/ha [2, 9]: 0 to 29%
pest or weed control at 35 g/ha [2, 10]: 0 to 29%
pest or weed control at 70 g/ha [2, 10]: 0 to 29%
pest or weed control at 140 g/ha [2, 10]: 0 to 29%
pest or weed control at 35 g/ha [2, 11]: 0 to 29%
pest or weed control at 70 g/ha [2, 11]: 0 to 29%
pest or weed control at 140 g/ha [2, 11]: 0 to 29%
pest or weed control at 35 g/ha [2, 12]: 0 to 29%
pest or weed control at 70 g/ha [2, 12]: 0 to 29%
pest or weed control at 140 g/ha [2, 12]: 0 to 29%
pest or weed control at 35 g/ha [2, 13]: 0 to 29%
pest or weed control at 70 g/ha [2, 13]: 45 to 59%
pest or weed control at 140 g/ha [2, 13]: 60 to 74%
pest or weed control at 35 g/ha [2, 14]: 30 to 44%
pest or weed control at 70 g/ha [2, 14]: 60 to 74%
pest or weed control at 140 g/ha [2, 14]: 75 to 84%
